Legend:
Type in all cases: in vivo
[1] = tested on: barnyardgrass (Echinochloa crus-galli); experiment: Test A preemergence soil spray, visual injury rating 0-100; conditions: 10 days, 0 = no effect, 100 = complete control
Method in brief: (§1)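 Directed preemergence spray onto seeded soil or postemergence spray onto 2-10 cm plants (loam plus sand); compound carried in surfactant-containing non-phytotoxic solvent. Injury rated by eye after 10 d greenhouse growth; 0 = no effect, 100 = complete control.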

[2] = tested on: blackgrass (Alopecurus myosuroides); experiment: as above; conditions: 10 days, 0 = no effect, 100 = complete control
Method in brief: as §1

corn (Zea mays) [3] = experiment: as above; conditions: 10 days, 0 = no effect, 100 = complete control
Method in brief: as §1

[4] = tested on: green foxtail (Setaria viridis); experiment: as above; conditions: 10 days, 0 = no effect, 100 = complete control
Method in brief: as §1

kochia (Bassia scoparia) [5] = experiment: as above; conditions: 10 days, 0 = no effect, 100 = complete control
Method in brief: as §1

[6] = tested on: oat, wild (wild oat, Avena fatua); experiment: as above; conditions: 10 days, 0 = no effect, 100 = complete control
Method in brief: as §1

[7] = tested on: palmer (palmer amaranth, palmer pigweed, Amaranthus palmeri); experiment: as above; conditions: 10 days, 0 = no effect, 100 = complete control
Method in brief: as §1

[8] = tested on: ragweed (common ragweed, Ambrosia artemisiifolia); experiment: as above; conditions: 10 days, 0 = no effect, 100 = complete control
Method in brief: as §1

[9] = tested on: ryegrass, Italian (italian ryegrass, Lolium multiflorum); experiment: as above; conditions: 10 days, 0 = no effect, 100 = complete control
Method in brief: as §1

soybean (Glycine max) [10] = experiment: as above; conditions: 10 days, 0 = no effect, 100 = complete control
Method in brief: as §1

[11] = tested on: wheat (Triticum aestivum); experiment: as above; conditions: 10 days, 0 = no effect, 100 = complete control
Method in brief: as §1

[12] = tested on: barnyardgrass (Echinochloa crus-galli); experiment: Test A postemergence application, visual injury rating 0-100; conditions: 10 days
Method in brief: as §1

[13] = tested on: blackgrass (Alopecurus myosuroides); experiment: as above; conditions: 10 days
Method in brief: as §1

corn (Zea mays) [14] = experiment: as above; conditions: 10 days
Method in brief: as §1

[15] = tested on: galium (catchweed bedstraw, Galium aparine); experiment: as above; conditions: 10 days
Method in brief: as §1

[16] = tested on: green foxtail (Setaria viridis); experiment: as above; conditions: 10 days
Method in brief: as §1

[17] = tested on: horseweed (Erigeron canadensis); experiment: as above; conditions: Postemergence, 125 g ai/ha, 10 days; 0 is no effect, 100 is complete control
Method in brief: as §1

kochia (Bassia scoparia) [18] = experiment: as above; conditions: 10 days
Method in brief: as §1

[19] = tested on: oat, wild (wild oat, Avena fatua); experiment: as above; conditions: 10 days
Method in brief: as §1

[20] = tested on: palmer (palmer amaranth, palmer pigweed, Amaranthus palmeri); experiment: as above; conditions: 10 days
Method in brief: as §1

[21] = tested on: ragweed (common ragweed, Ambrosia artemisiifolia); experiment: as above; conditions: 10 days
Method in brief: as §1

[22] = tested on: ryegrass, Italian (italian ryegrass, Lolium multiflorum); experiment: as above; conditions: 10 days
Method in brief: as §1

soybean (Glycine max) [23] = experiment: as above; conditions: 10 days
Method in brief: as §1

[24] = tested on: wheat (Triticum aestivum); experiment: as above; conditions: 10 days
Method in brief: as §1

[25] = tested on: barnyardgrass (Echinochloa crusgalli); experiment: Test B flooded paddy test, visual plant response rating 0-100; conditions: 250 g ai/ha, Flood, applied to paddy water, evaluated after 13 days
Method in brief: (§2)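 Plants were grown to the 2-leaf stage, then pots were flooded to 3 cm above the soil and compound was applied directly to the paddy water, with that depth kept throughout.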

[26] = tested on: ducksalad (Heteranthera limosa); experiment: as above; conditions: 250 g ai/ha, Flood, applied to paddy water, evaluated after 13 days
Method in brief: as §2

rice (Oryza sativa) = experiment: as above; conditions: 250 g ai/ha, Flood, applied to paddy water, evaluated after 13 days
Method in brief: as §2

[27] = tested on: sedge, umbrella (small-flower umbrella sedge, Cyperus difformis); experiment: as above; conditions: 250 g ai/ha, Flood, applied to paddy water, evaluated after 13 days
Method in brief: as §2

[28] = 31 g ai/ha, postemergence, 0 = no effect, 100 = complete control
[29] = Postemergence, 125 g ai/ha, 0 is no effect, 100 is complete control

For CC(C)OC(=O)C1CCC(NC(=O)C2(C)CN(c3cc(F)cc(Cl)c3)C(=O)O2)C1 (stereo not drawn) [Compound 2], the “Barnyardgrass plant response rating (0-100)” value ([1]; 31 g ai/ha) was 10, the “Barnyardgrass plant response rating (0 to 100 scale)” value ([1]; 125 g ai/ha) was 90 and the “Blackgrass plant response rating (0-100)” value ([2]; 31 g ai/ha) was 0. The “Blackgrass plant response rating (0 to 100 scale)” value ([2]; 125 g ai/ha) was 50, the “Corn plant response rating (0-100)” value (corn (Zea mays) [3]; 31 g ai/ha) was 20 and the “Corn plant response rating (0 to 100 scale)” value (corn (Zea mays) [3]; 125 g ai/ha) was 70. The “Foxtail, Green plant response rating (0-100)” value ([4]; 31 g ai/ha) was 0, the “Foxtail, Green plant response rating (0 to 100 scale)” value ([4]; 125 g ai/ha) was 90 and the “Kochia plant response rating (0-100)” value (kochia (Bassia scoparia) [5]; 31 g ai/ha) was 0. For the same compound, the “Kochia plant response rating (0 to 100 scale)” value (kochia (Bassia scoparia) [5]; 125 g ai/ha) was 70, the “Oat, Wild plant response rating (0-100)” value ([6]; 31 g ai/ha) was 0 and the “Oat, Wild plant response rating (0 to 100 scale)” value ([6]; 125 g ai/ha) was 70. The “Amaranth, Palmer plant response rating (0-100)” value ([7]; 31 g ai/ha) was 20, the “Amaranth, Palmer plant response rating (0 to 100 scale)” value ([7]; 125 g ai/ha) was 80 and the “Ragweed plant response rating (0-100)” value ([8]; 31 g ai/ha) was 30. For the same compound, the “Ragweed plant response rating (0 to 100 scale)” value ([8]; 125 g ai/ha) was 0, the “Ryegrass, Italian plant response rating (0-100)” value ([9]; 31 g ai/ha) was 20 and the “Ryegrass, Italian plant response rating (0 to 100 scale)” value ([9]; 125 g ai/ha) was 80. For the same compound, the “Soybean plant response rating (0-100)” value (soybean (Glycine max) [10]; 31 g ai/ha) was 0, the “Soybean plant response rating (0 to 100 scale)” value (soybean (Glycine max) [10]; 125 g ai/ha) was 20 and the “Wheat plant response rating (0-100)” value ([11]; 31 g ai/ha) was 50. For the same compound, the “Wheat plant response rating (0 to 100 scale)” value ([11]; 125 g ai/ha) was 90, the “Barnyardgrass plant response rating (0-100)” value [12, 28] was 50 and the “Barnyardgrass plant response rating (0 to 100 scale)” value [12, 29] was 100. The “Blackgrass plant response rating (0-100)” value [13, 28] was 60, the “Blackgrass plant response rating (0 to 100 scale)” value [13, 29] was 70 and the “Corn plant response rating (0-100)” value (corn (Zea mays) [14]; [28]) was 40. The “Corn plant response rating (0 to 100 scale)” value (corn (Zea mays) [14]; [29]) was 100, the “Galium plant response rating (0-100)” value [15, 28] was 60 and the “Galium plant response rating (0 to 100 scale)” value [15, 29] was 90. The “Foxtail, Green plant response rating (0-100)” value [16, 28] was 0, the “Foxtail, Green plant response rating (0 to 100 scale)” value [16, 29] was 90 and the “Horseweed plant response rating (0 to 100 scale)” value [17] was 0. For the same compound, the “Kochia plant response rating (0-100)” value (kochia (Bassia scoparia) [18]; [28]) was 0, the “Kochia plant response rating (0 to 100 scale)” value (kochia (Bassia scoparia) [18]; [29]) was 80 and the “Oat, Wild plant response rating (0-100)” value [19, 28] was 70. The “Oat, Wild plant response rating (0 to 100 scale)” value [19, 29] was 90, the “Amaranth, Palmer plant response rating (0-100)” value [20, 28] was 0 and the “Amaranth, Palmer / Pigweed, Palmer plant response rating (0 to 100 scale)” value [20, 29] was 50. For the same compound, the “Ragweed plant response rating (0-100)” value [21, 28] was 20, the “Ragweed plant response rating (0 to 100 scale)” value [21, 29] was 50 and the “Ryegrass, Italian plant response rating (0-100)” value [22, 28] was 50. The “Ryegrass, Italian plant response rating (0 to 100 scale)” value [22, 29] was 90, the “Soybean plant response rating (0-100)” value (soybean (Glycine max) [23]; [28]) was 20 and the “Soybean plant response rating (0 to 100 scale)” value (soybean (Glycine max) [23]; [29]) was 70. The “Wheat plant response rating (0-100)” value [24, 28] was 80, the “Wheat plant response rating (0 to 100 scale)” value [24, 29] was 90 and the “Plant response rating, Barnyardgrass (0 to 100 scale, 0 is no effect and 100 is complete control)” value [25] was 95. The “Plant response rating, Ducksalad (0 to 100 scale, 0 is no effect and 100 is complete control)” value [26] was 65, the “Plant response rating, Rice (0 to 100 scale, 0 is no effect and 100 is complete control)” value (rice (Oryza sativa)) was 20 and the “Plant response rating, Sedge, Umbrella (0 to 100 scale, 0 is no effect and 100 is complete control)” value [27] was 75.

Source: patent US20260285850A1, “SUBSTITUTED OXAZOLIDINONES AND IMIDAZOLINONES AS HERBICIDES” (FMC CORPORATION, priority 2023, published 2026)
